Data published in paper PMC2758911 (Clinical cancer research : an official journal of the …, 2009).

What was measured:
[1] = system: relapsed and refractory myeloma patients; conditions: cited from earlier work
QT interval = conditions: cited from earlier work
[2] = Vorinostat serum pharmacokinetics, day 4 of cycle 1; assay type: in vivo, human; conditions: for Tmax / half-life / AUC(0-inf) / Cmax: human, po
[3] = system: relapsed/refractory multiple myeloma patients
[4] = single patient with grade 3 event, baseline QTc 394 msec
[5] = vorinostat 400 mg daily, ECG 3 hours after vorinostat

For `O=C(CCCCCCC(=O)Nc1ccccc1)NO` [vorinostat, suberoylanilide hydroxamic acid], the “Tolerability and disease stabilization” value ([1]; heavily pre-treated population) is given as “favorable tolerability and evidence of disease stabilization”, the Single-agent activity ([1]; relapsed and refractory myeloma patients) is given as “failed to establish significant single-agent activity” and the “QTc prolongation in phase I and/or II studies” value (QT interval) is given as “have shown evidence of QTc prolongation”. The “Cmax at 400 mg versus 500 mg” value ([2]; Student t-test, p=0.35) was “not statistically different”, the “Dose proportionality of vorinostat pharmacokinetics (AUC)” value ([2]; doses 100–500 mg) was “the increase was greater than proportional” and the “Serum Cmax versus dose” value ([2]; doses 100–500 mg) was “reached a plateau above 400 mg”. For the same molecule, the “Dose proportionality of vorinostat pharmacokinetics (AUC)” value ([2]; doses 100–500 mg, listed as Vorinostat) was “non-linear”, the Tmax ([2]; serum) was 0.5 to 6 h and the half-life ([2]; serum) was 0.8 to 7.6 h. The AUC(0-inf) ([2]; serum, 100 mg) was 760 µM·h, the Cmax ([2]; serum, 100 mg) was 310 µM and the Tmax ([2]; serum, 100 mg) was 1.3 h. It also gave a half-life ([2]; serum, 100 mg) of 1.3 h, an AUC(0-inf) ([2]; serum, 200 mg) of 2030 µM·h and a Cmax ([2]; serum, 200 mg) of 650 µM. For the same molecule, the Tmax ([2]; serum, 200 mg) was 1.3 h, the AUC(0-inf) ([2]; serum, 400 mg) was 5130 µM·h and the Cmax ([2]; serum, 400 mg) was 1420 µM. For the same molecule, the AUC(0-inf) ([2]; serum, 500 mg) was 8100 µM·h, the Cmax ([2]; serum, 500 mg) was 1330 µM and the Tmax ([2]; serum, 500 mg) was 3.8 h. The half-life ([2]; serum, 500 mg) was 4.4 h, the “Slope of Cl/F (L/min) versus dose (mg)” value ([2]; linear regression, p=0.001, CL/F decreased with increasing dose) was −0.014 and the “t1/2, mean” value ([2]; vorinostat 200 mg BID oral (n=3), serum, day 4 cycle 1, with bortezomib) was 2.4 h. The “Patients who required a decrease in vorinostat dose for grade 3 diarrhea” value ([3]; in vivo) was 3 patients, the “Maximum tolerated dose (MTD) of vorinostat” value ([3]; oral once daily for 8 days (days 4–11) every 21 days, with bortezomib 1.3 mg/m2 days 1, 4, 8, 11) was 400 mg and the cQT after vorinostat [3, 4] was 633 ms. For the same molecule, the “cQT at 24 hours” value [3, 4] was 389 ms, the “Prolongation of QTc grade 1, patients” value [3, 5] was 7 and the “Prolongation of QTc grade 2, patients” value [3, 5] was 2.
For `Cc1[nH]c2ccccc2c1CCNCc1ccc(/C=C/C(=O)NO)cc1` [panobinostat], the “QTc prolongation in phase I and/or II studies” value (QT interval) is given as “have shown evidence of QTc prolongation”.
For `CC(C)C[C@H](NC(=O)[C@H](Cc1ccccc1)NC(=O)c1cnccn1)B(O)O` [bortezomib], the “Bortezomib dose at the MTD of the combination” value ([3]; days 1, 4, 8, 11 of 21-day cycle, with vorinostat 400 mg daily for 8 days) was 1.3 mg/m2 and the “Patients in whom bortezomib was decreased from 1.3 mg/m2 to 1 mg/m2” value ([3]; human, in vivo) was 8 patients.
